From patent US7700584B2 (Hangzhou Minsheng Pharmaceuticals Co., Ltd., priority 2004, dated 2010)
In brackets after ≈: the same amount, converted by molar mass. Where a name gives a salt, the structure may show the parent alone.

Key:
Format in all cases: cell-based
[1] = tested on: U-937 human histocytic lymphoma; test: In vitro inhibition rate to tumor cells (MTT), U-937; conditions: 50 μg/ml
[2] = tested on: SMMC-7721 human hepatic carcinoma; test: In vitro inhibition rate to tumor cells (MTT), SMMC-7721; conditions: 50 μg/ml
[3] = tested on: MCF-7 human mammary adenocarcinoma; test: In vitro inhibition rate to tumor cells (MTT), MCF-7; conditions: 50 μg/ml
[4] = tested on: A-549 human lung adenocarcinoma; test: In vitro inhibition rate to tumor cells (MTT), A-549; conditions: 50 μg/ml
[5] = tested on: U-937 human histocytic lymphoma; test: In vitro anti-tumor IC50 (MTT), U-937; conditions: Table 4
Method: (§1) (1) Single cell suspension was seeded into 96-well plates (the cells was diluted in the PRMI-1640 minimum medium to 3×10^4 cells/ml, […] diluted cells/well). […] The experiments were performed in quadruplicate.
(§2) (2) The medium was removed. Solutions of the anti-tumor agents (50 compounds) were prepared in a freshly prepared medium at serial concentrations. […] of the solution was added into each well. Incubation was continued for 48 hours.
(§3) (3) 20 ug of 2 mg/ml MTT was added into each well, and incubated for 4 hours.
(§4) (4) The medium was removed from the well. The microplates were swiftly turned down to throw-off the medium. […] of DMSO was added into each well, and vortexed at room temperature for 10 minutes.
(§5) (5) OD value (λ=570 nm) was measured with an Enzyme-Linked Detector.
(§6) (6) The graph of cell vitality was plotted, and IC50 was calculated.

[6] = tested on: Hela human cervical carcinoma; test: In vitro inhibition rate to tumor cells (MTT), Hela; conditions: 50 μg/ml
[7] = tested on: HL-60 human promyelocytic leukemia; test: In vitro inhibition rate to tumor cells (MTT), HL-60; conditions: 50 μg/ml
[8] = tested on: Bel-7402 human hepatic carcinoma; test: In vitro inhibition rate to tumor cells (MTT), Bel-7402; conditions: 50 μg/ml
[9] = tested on: Hela human cervical carcinoma; test: In vitro anti-tumor IC50 (MTT), Hela; conditions: Table 4
Method: as §1, §2, §3, §4, §5, §6

[10] = tested on: LLC mouse Lewis lung carcinoma; test: In vitro inhibition rate to tumor cells (MTT), LLC; conditions: 50 μg/ml
HepG2 cells = test: Cell status of HepG2 cells treated with sample (HBV screening); conditions: 200 μg/ml, HepG2, four days after infection
Hepatitis B virus (HBV) = tested on: Hepatitis B virus (HBV)
[11] = Table 2 (repeated screening), hydrochloride

CCCCNC=C1CC2(O)OC3(CC2C(C)C)C(C)CCC13 (centres unmarked) [Compound 13, Curcumol n-butyl amine]
inhibition rate, Results (%) U-937 ([1]; Table 1): 51.10%
inhibition rate, Results (%) U-937 ([1]; Table 2 (repeated screening)): 45.10%
inhibition rate, Results (%) SMMC-7721 ([2]; Table 1): 3.71%
inhibition rate, Results (%) SMMC-7721 ([2]; Table 2 (repeated screening)): 0.23%
inhibition rate, Results (%) MCF-7 ([3]; Table 1): 54.67%
inhibition rate, Results (%) MCF-7 ([3]; Table 2 (repeated screening)): 50.36%
inhibition rate, Results (%) A-549 ([4]; Table 1): 7.59%
inhibition rate, Results (%) A-549 ([4]; Table 2 (repeated screening)): 3.56%
IC50 (ug/ml) against tumor cell lines, U-937 [5]: 0.98 µg/mL (≈ 3.19 µM)
inhibition rate, Results (%) Hela ([6]; Table 1): 66.32%
inhibition rate, Results (%) Hela ([6]; Table 2 (repeated screening)): 65.92%
inhibition rate, Results (%) HL-60 ([7]; Table 1): 0.12%
inhibition rate, Results (%) HL-60 ([7]; Table 2 (repeated screening)): 0.79%
inhibition rate, Results (%) Bel-7402 ([8]; Table 1): 33.16%
inhibition rate, Results (%) Bel-7402 ([8]; Table 2 (repeated screening)): 30.25%
IC50 (ug/ml) against tumor cell lines, Hela [9]: 1.6 µg/mL (≈ 5.2 µM)
inhibition rate, Results (%) LLC ([10]; Table 1): 0.24%
inhibition rate, Results (%) LLC ([10]; Table 2 (repeated screening)): 1.32%

CC(C)C1CC23OC1(O)C/C(=C\NC(C)(C)C)C2CCC3C (centres unmarked) [Compound 16, Curcumol t-butyl amine hydrochloride]
inhibition rate, Results (%) U-937 ([1]; Table 1, hydrochloride): 82.56%
inhibition rate, Results (%) U-937 [1, 11]: 80.12%
inhibition rate, Results (%) SMMC-7721 ([2]; Table 1): −2.50%
inhibition rate, Results (%) SMMC-7721 [2, 11]: 2.63%
inhibition rate, Results (%) MCF-7 ([3]; Table 1, hydrochloride): 54.89%
inhibition rate, Results (%) MCF-7 [3, 11]: 50.32%
inhibition rate, Results (%) A-549 ([4]; Table 1, hydrochloride): 6.01%
inhibition rate, Results (%) A-549 [4, 11]: 10.19%
inhibition rate, Results (%) Hela ([6]; Table 1, hydrochloride): 68.99%
inhibition rate, Results (%) Hela [6, 11]: 70.32%
Cell status (HepG2 cells): Normal
inhibition rate, Results (%) HL-60 ([7]; Table 1, hydrochloride): 2.31%
inhibition rate, Results (%) HL-60 [7, 11]: 15.00%
inhibition rate, Results (%) Bel-7402 ([8]; Table 1, hydrochloride): 1.23%
inhibition rate, Results (%) Bel-7402 [8, 11]: 8.99%
inhibition rate, Results (%) LLC ([10]; Table 1, hydrochloride): 1.13%
inhibition rate, Results (%) LLC [10, 11]: 0.22%
(Value of the positive control - Measured Value) Value of the positive control × 100% (Hepatitis B virus (HBV); 200 μg/ml, decrease of HBeAg relative to positive control): 73.81%
OD450 of HBeAg (Hepatitis B virus (HBV); 200 μg/ml, supernatant four days after infection, positive control 1.917, negative 0.057): 0.502
activity against HBV (in words) (Hepatitis B virus (HBV); primary screening, HBV e antigen, HepG2, 13 samples): had the activity against HBV
